Test: xn = mol fraction of the nth substance listed
Conditions: 288.15 K, Liquid, Vibrating tube method

COC(=O)OC [dimethyl carbonate] + CO
mass density [kg/m3]
Conditions	100 kPa	5000 kPa	10000 kPa	15000 kPa	20000 kPa	25000 kPa
x1 = 0.0253	810.84	815.18	819.54	823.48	827.53	831.19
x1 = 0.0503	824.62	828.97	833.29	837.23	841.29	844.9
x1 = 0.0745	837.24	841.59	845.92	849.88	853.93	857.55
x1 = 0.101	850.42	854.82	859.16	863.12	867.17	870.8
x1 = 0.1502	872.98	877.39	881.74	885.77	889.81	893.46
x1 = 0.2059	896.31	900.74	905.09	909.15	913.18	916.85
x1 = 0.25	913.24	917.63	921.99	926.05	930.08	933.76
x1 = 0.3004	930.93	935.33	939.69	943.77	947.8	951.49
x1 = 0.3426	944.7	949.1	953.42	957.51	961.53	965.18
x1 = 0.3984	961.49	965.91	970.23	974.34	978.3	981.96
x1 = 0.4514	976.13	980.55	984.83	988.95	992.91	996.58
x1 = 0.5054	989.85	994.22	998.51	1002.64	1006.6	1010.28
x1 = 0.5509	1000.55	1004.93	1009.17	1013.31	1017.27	1020.95
x1 = 0.6002	1011.31	1015.7	1019.95	1024.09	1028.04	1031.69
x1 = 0.6469	1020.74	1025.14	1029.39	1033.54	1037.49	1041.14
x1 = 0.6993	1030.63	1035.03	1039.28	1043.44	1047.34	–
x1 = 0.7496	1039.53	1043.88	1048.14	1052.31	1056.2	–
x1 = 0.799	1047.69	1052.04	1056.25	1060.43	1064.32	–
x1 = 0.837	1053.71	1058.02	1062.23	1066.41	1070.3	–
x1 = 0.9093	1064.47	1068.78	1072.95	1077.14	1080.97	–
x1 = 0.9239	1066.51	1070.83	1074.99	1079.18	1083.02	–
x1 = 0.9575	1071.14	1075.46	1079.63	1083.83	1087.66	–
x1 = 0.9861	1074.98	1079.3	1083.47	1087.67	1091.5	–
x1 = 1	1076.83	1081.15	1085.32	1089.52	1093.35	–

Reference: the NIST ThermoML archive (doi:10.1016/j.jct.2019.02.011)
